Test [1] concerns beta hCG. Briefly: Beta hCG assay, AK-Ab1 particle + HRP-Ab2 conjugate. The format is biochemical, human. The following applies: ascorbic acid employed. The protocol:
This example describes a method of detecting beta-human chorionic gonadotrophin (beta hCG) using an AK-Abl particle prepared as set forth in Example 3 and a HRP-Ab2 conjugate prepared as set forth in Example 4 where Ab2 represents an antibody to beta hCG. This method employed ascorbic acid to decrease background signal.
HRP-Ab2 conjugate suspensions were prepared at 1.0 μg/mL and contained either 0 or 1 mM ascorbic acid. Samples consisted of human serum samples with the indicated mounts of beta hCG added or no beta hCG as a control. The test procedure consisted of adding 20 μL of 1.0 μg/mL HRP-Ab2 conjugate and 30 μL of MES buffer containing 1 mg/mL BSA and 1 mg/mL MIgG, pH 5.9 to the reaction vessel. Next, 25 μL of patient serum sample was added, followed by 25 μL of 10 mg/mL AK-Abl conjugate suspension thereby obtaining 100 μL of total volume in the reaction vessel. After 15.2 minutes, 100 μL of trigger solution A was added to the reaction vessel and the light intensity was recorded on the modified DxI instrument. Chemiluminescence intensity is expressed in Relative Light Units (RLU).

The test system of test [2] is cTnI. As to the kind of experiment: Effect of ascorbic acid concentration on cTnI assay using various particles. It is filed as biochemical. To be noted: ascorbic acid 150 μM to 9.4 μM; Dynal M-280, 6 μm CML, LodeStars; in words. The protocol: Effect of ascorbic acid on cTnI assay using various particles. The effect of varying the ascorbic acid concentration in the range 150 μM to 9.4 μM on chemiluminescence was investigated for assays employing Dynal M-280, 6 μm CML, and LodeStars particles.

As for `O=C1O[C@H]([C@@H](O)CO)C(O)=C1O` [Ascorbic Acid, Ascorbic acid], the RLU is 1,031 RLU in test [1] (S0, beta hCG 0 IU/mL); 7,288 RLU in test [1] (S1, beta hCG 4.35 IU/mL); 35,320 RLU in test [1] (S2, beta hCG 20.81 IU/mL); 298,108 RLU in test [1] (S3, beta hCG 127.285 IU/mL); 1,293,751 RLU in test [1] (S4, beta hCG 413.455 IU/mL); 2,225,779 RLU in test [1] (S5, beta hCG 775.805 IU/mL). The S/S0 in test [1] (S1, beta hCG 4.35 IU/mL) is on record as 7; in test [1] (S2, beta hCG 20.81 IU/mL) it was 34; in test [1] (S3, beta hCG 127.285 IU/mL) it was 289; in test [1] (S4, beta hCG 413.455 IU/mL), 1,255; in test [1] (S5, beta hCG 775.805 IU/mL), 2,159. In test [2], the signal/background entry is listed as “improved analytical sensitivity by increasing signal/background”.

Values taken from patent US20100273189A1, “NON SEPARATION ASSAYS WITH SELECTIVE SIGNAL INHIBITORS” (BECKMAN COULTER, INC., priority 2009, published 2010).
